Source: PMC8480273, “Design, synthesis, and biological evaluation of symmetrical azine derivatives as novel tyrosinase inhibitors” (BMC Chemistry, 2021)
Where two headings read alike, the source gives them in different places. One block for each compound: values may come before it.

Tests used:
[1] = biological target: T1, mushroom tyrosinase (Agaricus bisporus, UniProt C7FF04); assay: Determination of the inhibition type (Lineweaver–Burk kinetics); assay type: biochemical; conditions: Lineweaver–Burk plot, L-DOPA substrate
T1 construct: purchased Sigma Chemical Co. (St. Louis, MO, USA)
T1 sequence (C7FF04 1-392): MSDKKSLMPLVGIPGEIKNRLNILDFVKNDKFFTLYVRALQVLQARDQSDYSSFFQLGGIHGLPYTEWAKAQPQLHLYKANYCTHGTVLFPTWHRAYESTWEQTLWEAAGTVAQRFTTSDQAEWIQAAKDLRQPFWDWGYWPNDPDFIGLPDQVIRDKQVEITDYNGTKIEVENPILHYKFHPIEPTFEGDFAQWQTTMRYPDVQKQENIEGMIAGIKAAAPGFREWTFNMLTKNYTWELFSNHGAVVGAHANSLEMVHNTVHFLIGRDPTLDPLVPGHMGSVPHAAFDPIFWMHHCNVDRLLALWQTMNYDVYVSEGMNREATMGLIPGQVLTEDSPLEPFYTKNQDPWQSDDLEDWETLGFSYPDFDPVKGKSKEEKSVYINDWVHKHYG
Description: A series of experiments were performed to determine the inhibition kinetics of 3f. The inhibitor concentrations were: 0, 8, 16 μM. Substrate (L-DOPA) concentrations were (0.1, 0.25, 0.5, 0.75 and 1.5 mM) in kinetic studies. Pre-incubation and measurement time was the same as discussed in the mushroom tyrosinase inhibition assay protocol. Maximum initial velocity was determined from the initial linear portion of absorbance up to 10 min after addition of L-DOPA with 1 min interval. The Michaelis constant (Km) and the maximal velocity (Vmax) of the tyrosinase activity were determined by the Lineweaver–Burk plot at various concentrations of L-DOPA as a substrate. The inhibition type of the enzyme was assayed by Lineweaver–Burk plots of the inverse of velocities (1/V) versus the inverse of substrate concentrations 1/[S] mM^−1.

[2] = MTT assay for cell viability, B16F10; assay type: cell-based; conditions: mouse, B16F10 melanoma cells, B16F10, 10 µM, ± SD
Description: (§1) The cytotoxic activity of compound was evaluated in B16F10 cells using 3-(4,5-dimethylthiazol-2-yl)-2,5-diphenyltetrazolium bromide (MTT) assay. Cells were seeded in a 96-well plate (5 × 10^3 cells/well) and incubated at 37 °C with samples at different concentrations for 48 h. Following the treatment, cells were incubated with MTT (0.5 mg mL^−1) at 37 °C for 3 h. The MTT-containing medium was then removed, and 100 μL of DMSO was added to each well, mixed thoroughly with a 10 min shake to dissolve formazan crystals. The absorbance of each well was measured at 540 nm.

[3] = MTT assay for cell viability, A375; assay type: cell-based; conditions: human, A375 melanoma cells, A375, 10 µM, ± SD
Description: The A375 cell line is derived from a human skin melanoma carrying two mutant genes, B-RAF and CDKN2 which are associated with melanoma of sun-damaged skin [48]. To determine the cytotoxicity of 3f in A375 melanoma cell lines, MTT studies were conducted.
as §1

[4] = system: B16F10 melanoma cells; assay: Melanin content assay; assay type: cell-based; conditions: B16F10, 10 µM, in comparison with the control
Description: B16F10 cells were seeded in six-well plates (1.0 × 10^5 cells/well). After 24 h, the medium was substituted by a fresh one and treated with 3f, and incubated for 48 h. Then, cells were treated with 100 nM α -MSH. […] After incubation cells were washed twice with PBS and harvested using […] trypsin, then dissolved in 300 μL of 1 N NaOH/10% DMSO buffer and boiled for 2 h at 80 °C to solubilize the melanin. The absorbance of the supernatant was measured at 470 nm in a microplate reader. The obtained results were normalized using total protein content.

[5] = biological target: tyrosinase; conditions: cited from earlier work

Vmax and Km values in the presence of increasing concentrations of compound [1]: decreased | type of inhibition ([1]; inhibitor 0, 8, 16 μM): uncompetitive
Compound: Oc1ccc(C=NN=Cc2ccc(O)cc2O)c(O)c1 [Compound 3f, 4,4′-(Hydrazine-1,2-diylidenebis(methaneylylidene))bis(benzene-1,3-diol)]
viability at 48 h, 10 µM [2]: 60.1 ± 9.82% | viability at 48 h, 10 µM [3]: > 82% | Melanin content (%) [4]: 79.58%

Compound: CCOc1cc(/C=N/NC(=O)c2ccc(O)cc2)ccc1O [D]
IC50 ([5]; hydrazine-containing compound): 9.9 µM

Compound: O=C1c2c(O)cc(O)cc2O[C@H](c2ccc(O)cc2O)[C@H]1O [Dihydromorin]
IC50 ([5]; Fig. 1, flavanol): 10.3 µM

Compound: CCOc1cc(/C=N/NC(=O)c2ccc(O)c(OC)c2)ccc1O [E]
IC50 ([5]; hydrazine-containing compound): 1.58 µM

Compound: NC(=S)N/N=C/c1ccc([N+](=O)[O-])cc1 [F]
IC50 ([5]; hydrazine-containing compound): 0.05 µM

Compound: O=c1cc(-c2ccc(O)c(O)c2)oc2cc(O)cc(O)c12 [Luteolin]
IC50 ([5]; Fig. 1, flavone): 60 µM

Compound: O=c1c(O)c(-c2ccc(O)c(O)c2)oc2cc(O)cc(O)c12 [Quercetin]
Ki ([5]; Fig. 1, flavonol): 29 µM

Compound: Oc1ccc(/C=C/c2cc(O)cc(O)c2)cc1 [Resveratrol, 3,5,4′-trihydroxy-trans-stilbene]
IC50 ([5]; Fig. 1, stilbenoid): 1 to 9 µM | IC50 ([5]; resveratrol): 26.6 µM

Compound: O=C1CC(c2ccc(O)cc2O)Oc2cc(O)cc(O)c21 (stereo not drawn) [Streppogenin]
IC50 ([5]; Fig. 1, flavanone): 1.3 µM

Compound: Oc1ccc(/C=N/c2ccccc2O)c(O)c1 [compound B]
IC50 ([5]; most potent bibenzyl compound of Oozeki et al.): 0.37 µM

Compound: Chalcone
IC50 ([5]; Fig. 1, chalcone): 8.1 µM

Compound: Phthalimide
IC50 ([5]; Fig. 1, phthalimide): 26.2 µM

Compound: Quinazoline
IC50 ([5]; Fig. 1, quinazoline): 0.46 µM
